# Measurements from ChEMBL document CHEMBL1201862, “PubChem BioAssay data set” (2004).
#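 Values below derive from 48-hour exposures of cells grown in 96-well plates, with endpoints linearly interpolated between the two concentrations bracketing the appropriate inhibition level. Abbreviation: GI50, concentration required for 50% inhibition of growth.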 Calls of active or inactive are those of the source. Rule as the data show it: active = GI50 up to about 1.1 µM and inactive = higher.
# Legend:
# Experiment in all cases: NCI-60 cell line screen, 48 h
# 786-0 = tested on: 786-0
# CAKI-1 = tested on: CAKI-1
# COLO 205 = tested on: COLO 205
# HL-60 = tested on: HL-60
# HOP-92 = tested on: HOP-92
# Hs-578T = tested on: Hs-578T
# K562 = tested on: K562
# LOX IMVI = tested on: LOX IMVI
# MOLT-4 = tested on: MOLT-4
# NCI-H23 = tested on: NCI-H23
# NCI-H522 = tested on: NCI-H522
# NCI/ADR-RES = tested on: NCI/ADR-RES
# OVCAR-4 = tested on: OVCAR-4
# OVCAR-5 = tested on: OVCAR-5
# SF-268 = tested on: SF-268
# SNB-19 = tested on: SNB-19
# SNB-75 = tested on: SNB-75
# SR = tested on: SR
# T47D = tested on: T47D
# TK-10 = tested on: TK-10
Structure (SMILES),GI50 (786-0),GI50 (CAKI-1),GI50 (COLO 205),GI50 (HL-60),GI50 (HOP-92),GI50 (Hs-578T),GI50 (K562),GI50 (LOX IMVI),GI50 (MOLT-4),GI50 (NCI-H23),GI50 (NCI-H522),GI50 (NCI/ADR-RES),GI50 (OVCAR-4),GI50 (OVCAR-5),GI50 (SF-268),GI50 (SNB-19),GI50 (SNB-75),GI50 (SR),GI50 (T47D),GI50 (TK-10)
COc1cc2c(cc1OC)[C@H]1C(=O)c3cc4c(cc3[C@H]1N(C)C2=O)OCO4,4.41 µM (inactive),3.13 µM (inactive),6.14 µM (inactive),1.77 µM (inactive),22.2 µM (inactive),> 94.6 µM (inactive),0.869 µM (active),1.5 µM (inactive),0.3 µM (active),5.2 µM (inactive),1.06 µM (active),4.81 µM (inactive),> 100 µM (inactive),> 100 µM (inactive),4.17 µM (inactive),6.35 µM (inactive),8.77 µM (inactive),0.557 µM (active),> 28.2 µM (inactive),> 100 µM (inactive)
CSc1ccn(C2CC(F)C(CO)O2)c(=O)n1 (stereo not given),> 100 µM (inactive),> 100 µM (inactive),> 100 µM (inactive),> 100 µM (inactive),> 100 µM (inactive),> 100 µM (inactive),> 100 µM (inactive),> 100 µM (inactive),> 100 µM (inactive),> 100 µM (inactive),> 100 µM (inactive),> 100 µM (inactive),> 100 µM (inactive),> 100 µM (inactive),> 100 µM (inactive),> 100 µM (inactive),> 100 µM (inactive),> 100 µM (inactive),> 100 µM (inactive),> 100 µM (inactive)
COc1ccc(Cc2c(-c3ccc(C)cc3)n[nH]c(=O)c2C2C(=O)N(c3ccccc3)N=C2c2ccccc2)cc1 (stereo not given),35.7 µM (inactive),37.1 µM (inactive),20.7 µM (inactive),39.3 µM (inactive),28 µM (inactive),31.6 µM (inactive),28 µM (inactive),20.6 µM (inactive),23.1 µM (inactive),25.8 µM (inactive),44.3 µM (inactive),25.1 µM (inactive),48.2 µM (inactive),33 µM (inactive),38.9 µM (inactive),36.1 µM (inactive),23.9 µM (inactive),37.1 µM (inactive),> 65.6 µM (inactive),29.2 µM (inactive)
COc1ccc(N2C(=O)[C@H]3[C@H]4CC(C(C)(C)C)CC[C@H]4c4c(n(C)c5ccccc45)[C@H]3C2=O)cc1 (stereo not given in full),> 100 µM (inactive),> 100 µM (inactive),> 100 µM (inactive),> 90.6 µM (inactive),> 100 µM (inactive),56.1 µM (inactive),> 95.3 µM (inactive),> 100 µM (inactive),> 100 µM (inactive),> 100 µM (inactive),> 10 µM (inactive),> 100 µM (inactive),> 79.6 µM (inactive),> 10 µM (inactive),> 100 µM (inactive),> 100 µM (inactive),> 87.7 µM (inactive),> 100 µM (inactive),> 100 µM (inactive),> 10 µM (inactive)
C[N+](C)=C/C=C(\Cl)c1ccc2ccccc2c1,13.1 µM (inactive),11.9 µM (inactive),19.2 µM (inactive),6.52 µM (inactive),21 µM (inactive),32.4 µM (inactive),5.04 µM (inactive),4.33 µM (inactive),1.54 µM (inactive),5.98 µM (inactive),21.4 µM (inactive),6.87 µM (inactive),3.82 µM (inactive),19.9 µM (inactive),22.9 µM (inactive),21.7 µM (inactive),21.5 µM (inactive),1.39 µM (inactive),12.4 µM (inactive),16.3 µM (inactive)
C/C(=C\COP(=O)(O)OP(=O)(O)O)CCCCCCOCc1ccccc1,> 100 µM (inactive),> 100 µM (inactive),> 100 µM (inactive),> 100 µM (inactive),> 100 µM (inactive),> 100 µM (inactive),> 100 µM (inactive),> 100 µM (inactive),> 100 µM (inactive),> 100 µM (inactive),> 100 µM (inactive),> 100 µM (inactive),> 100 µM (inactive),> 100 µM (inactive),> 100 µM (inactive),> 100 µM (inactive),> 100 µM (inactive),> 100 µM (inactive),> 100 µM (inactive),> 100 µM (inactive)
OC(COc1ccc(Cl)cc1Cl)CN1CCCC1 (stereo not given),> 100 µM (inactive),> 100 µM (inactive),> 100 µM (inactive),42.7 µM (inactive),75.9 µM (inactive),58.3 µM (inactive),71.6 µM (inactive),> 100 µM (inactive),42.6 µM (inactive),> 100 µM (inactive),52.8 µM (inactive),> 100 µM (inactive),> 100 µM (inactive),> 100 µM (inactive),> 100 µM (inactive),> 100 µM (inactive),50.6 µM (inactive),64.6 µM (inactive),> 100 µM (inactive),> 100 µM (inactive)
S=c1cc(-c2ccc3c(c2)OCO3)s[nH]1,> 100 µM (inactive),> 100 µM (inactive),> 100 µM (inactive),> 100 µM (inactive),> 100 µM (inactive),> 100 µM (inactive),> 100 µM (inactive),> 100 µM (inactive),65.3 µM (inactive),> 100 µM (inactive),5.81 µM (inactive),> 100 µM (inactive),> 100 µM (inactive),> 100 µM (inactive),> 100 µM (inactive),> 100 µM (inactive),48.4 µM (inactive),> 100 µM (inactive),89.7 µM (inactive),> 100 µM (inactive)
Cc1cc2c3ccccc3n(C)c2c2c1C(=O)C=CC2=O,5.78 µM (inactive),14.3 µM (inactive),17.9 µM (inactive),5.24 µM (inactive),12.1 µM (inactive),22.3 µM (inactive),5.33 µM (inactive),17.5 µM (inactive),6.76 µM (inactive),12.4 µM (inactive),16.1 µM (inactive),33.9 µM (inactive),7.29 µM (inactive),21.1 µM (inactive),17.2 µM (inactive),28.5 µM (inactive),27 µM (inactive),4.68 µM (inactive),3.39 µM (inactive),16.5 µM (inactive)
O=C1c2ccccc2CC12Cc1ccc3c(c1C2)CCC3 (stereo not given),20.6 µM (inactive),26.8 µM (inactive),19 µM (inactive),12.6 µM (inactive),14 µM (inactive),21 µM (inactive),22.3 µM (inactive),12.4 µM (inactive),23.8 µM (inactive),28.8 µM (inactive),4.54 µM (inactive),4.24 µM (inactive),22.2 µM (inactive),17.2 µM (inactive),30 µM (inactive),48.1 µM (inactive),20.3 µM (inactive),14 µM (inactive),19.1 µM (inactive),2.36 µM (inactive)
